Reference: US9561228B2 (Celgene Avilomics Research, Inc., priority 2013, dated 2017)

What was measured:
Type in all cases: cell-based
[1] = tested on: ERK1/2 phosphorylation of p90RSK in A375 cells; experiment: Detection of total and phosphor-RSK by MSD ELISA (A375); conditions: Homo sapiens, A-375, read-out: ERK1/ERK2 PRSK A375 EC50
Summary of the method: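 Electrochemiluminescent MSD ELISA: common RSK capture antibody, with pRSK Ser380 or total RSK detection antibodies plus SulfoTag secondaries. Samples were lysates of A375 cells exposed to compound for 2 h at 37° C after overnight culture in 0.1% FBS DMEM.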

[2] = tested on: A375 cells (malignant melanoma); experiment: Inhibition of cancer cell proliferation, A375 (CellTiterGlo, 72 hours); conditions: Homo sapiens, A-375
Summary of the method: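 GI50 derived from % growth inhibition relative to untreated wells, after luminescence (CellTiterGlo, 10 min) was converted to cell counts using a standard curve. Compound given as 3-fold dilutions from a 2× 5,000 nM stock in serum-free DMEM; 3000 A375 cells/well, 72 h culture at 37 °C.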

[3] = tested on: HCT116 cells (colorectal carcinoma); experiment: Inhibition of cancer cell proliferation, HCT116 (CellTiterGlo, 72 hours); conditions: Homo sapiens, HCT-116
Summary of the method: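 3000 cells per well exposed to 3-fold serial compound dilutions from 5,000 nM (two-fold solution, stock level) for 72 hours at 37° C. CellTiterGlo luminescence converted to cell number via a standard curve; percent inhibition vs untreated wells, GI50 by curve fit.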

| SMILES | EC50 [1] | GI50 [2] | GI50 [3] |
| --- | --- | --- | --- |
| C=CC(=O)Nc1cc(OC)ccc1Nc1nc(Nc2cc(OC)nc(N3CCN(C(C)=O)CC3)c2)ncc1C(F)(F)F [Compound I-91, N-(2-((2-((2-(4-Acetylpiperazin-1-yl)-6-methoxypyridin-4-yl)amino)-5-(trifluoromethyl)pyrimidin-4-yl)amino)-5-methoxyphenyl)acrylamide] | < 100 nM | < 100 nM | < 100 nM |
| C=CC(=O)Nc1ccccc1Nc1nc(Nc2cc(OC)nc(N3CCCC3)c2)ncc1C(F)(F)F [Compound I-281, N-(2-((2-((2-Methoxy-6-(pyrrolidin-1-yl)pyridin-4-yl)amino)-5-(trifluoromethyl)pyrimidin-4-yl)amino)phenyl)acrylamide] | < 100 nM | < 100 nM | < 100 nM |
| C=CC(=O)Nc1cc(OC)ccc1Nc1nc(N[C@H]2CCCN(C(=O)CO)C2)ncc1C(F)(F)F [Compound I-64, (S)—N-(2-((2-((1-(2-Hydroxyacetyl)piperidin-3-yl)amino)-5-(trifluoromethyl)pyrimidin-4-yl)amino)-5-methoxyphenyl)acrylamide] | 101 to 500 nM | < 100 nM | < 100 nM |
| C=CC(=O)Nc1cc(C)ccc1Nc1nc(Nc2cc(OC)nc(N3CCOCC3)c2)ncc1C(F)(F)F [Compound I-94, N-(2-((2-((2-Methoxy-6-morpholinopyridin-4-yl)amino)-5-(trifluoromethyl)pyrimidin-4-yl)amino)-5-methylphenyl)acrylamide] | 101 to 500 nM | < 100 nM | < 100 nM |
| C=CC(=O)Nc1cc(OC)ccc1Nc1nc(Nc2cc(OC)nc(N3CCN(CC)CC3)c2)ncc1C(F)(F)F [Compound I-88, N-(2-((2-((2-(4-Ethylpiperazin-1-yl)-6-methoxypyridin-4-yl)amino)-5-(trifluoromethyl)pyrimidin-4-yl)amino)-5-methoxyphenyl)acrylamide] | 101 to 500 nM | < 100 nM | < 100 nM |
| C=CC(=O)Nc1cc(C)ccc1Nc1nc(Nc2cc(OC)nc(N3CCN(CC)CC3)c2)ncc1C(F)(F)F [Compound I-89, N-(2-((2-((2-(4-Ethylpiperazin-1-yl)-6-methoxypyridin-4-yl)amino)-5-(trifluoromethyl)pyrimidin-4-yl)amino)-5-methylphenyl)acrylamide] | 101 to 500 nM | < 100 nM | < 100 nM |
| C=CC(=O)Nc1ccccc1Nc1nc(Nc2cc(OC)nc(OC)c2)ncc1C(F)(F)F [Compound I-95, N-(2-((2-((2,6-Dimethoxypyridin-4-yl)amino)-5-(trifluoromethyl)pyrimidin-4-yl)amino)phenyl)acrylamide] | < 100 nM | < 100 nM | < 100 nM |
| C=CC(=O)Nc1ccccc1Nc1nc(Nc2cc(C(N)=O)ccc2C)ncc1C(F)(F)F [Compound I-68, 3-(4-(2-Acrylamidophenylamino)-5-(trifluoromethyl)pyrimidin-2-ylamino)-4-methylbenzamide] | 101 to 500 nM | < 100 nM | < 100 nM |
| C=CC(=O)Nc1cc(OC)ccc1Nc1nc(Nc2cc(OC)ncc2C)ncc1Cl [Compound I-242, N-(2-((5-chloro-2-((2-methoxy-5-methylpyridin-4-yl)amino)pyrimidin-4-yl)amino)-5-methoxyphenyl)acrylamide] | < 100 nM | < 100 nM | 101 to 500 nM |
| C=CC(=O)Nc1cc(C)ccc1Nc1nc(N[C@H]2CCCN(C(=O)CO)C2)ncc1Cl [Compound I-140, (S)—N-(2-((5-chloro-2-((1-(2-hydroxyacetyl)piperidin-3-yl)amino)pyrimidin-4-yl)amino)-5-methylphenyl)acrylamide] | < 100 nM | < 100 nM | < 100 nM |

The remaining lines, values ahead:

| EC50 [1] | GI50 [2] | GI50 [3] | SMILES |
| --- | --- | --- | --- |
| < 100 nM | < 100 nM | < 100 nM | C=CC(=O)Nc1ccccc1Nc1nc(Nc2cc(OC)nc(OCCOC)c2)ncc1C(F)(F)F [Compound I-283, N-(2-((2-((2-Methoxy-6-(2-methoxyethoxyl)pyridin-4-yl)amino)-5-(trifluoromethyl)pyrimidin-4-yl)amino)phenyl)acrylamide] |
| < 100 nM | < 100 nM | < 100 nM | C=CC(=O)Nc1cc(C)ccc1Nc1nc(Nc2cc(NC3CC3)nc(OC)c2)ncc1C(F)(F)F [Compound I-337, N-(2-((2-((2-(cyclopropylamino)-6-methoxypyridin-4-yl)amino)-5-(trifluoromethyl)pyrimidin-4-yl)amino)-5-methylphenyl)acrylamide] |
| < 100 nM | < 100 nM | < 100 nM | C=CC(=O)Nc1cc(C)ccc1Nc1nc(Nc2cc(N[C@H]3CC[C@@H](O)CC3)nc(OC)c2)ncc1C(F)(F)F [Compound I-326, N-(2-((2-((2-((cis-4-hydroxycyclohexyl)amino)-6-methoxypyridin-4-yl)amino)-5-(trifluoromethyl)pyrimidin-4-yl)amino)-5-methylphenyl)acrylamide] |
| 501 to 999 nM | < 100 nM | < 100 nM | C=CC(=O)Nc1cc(C)ccc1Nc1nc(Nc2cc(OC)cc(OC)c2)ncc1C(F)(F)F [Compound I-339, N-(2-((2-((3,5-dimethoxyphenyl)amino)-5-(trifluoromethyl)pyrimidin-4-yl)amino)-5-methylphenyl)acrylamide] |
| < 100 nM | < 100 nM | < 100 nM | C=CC(=O)Nc1cc(OC)ccc1Nc1nc(Nc2cc(OC)nc(N3CCN(C)CC3)c2)ncc1C(F)(F)F [Compound I-334, N-(5-methoxy-2-((2-((2-methoxy-6-(4-methylpiperazin-1-yl)pyridin-4-yl)amino)-5-(trifluoromethyl)pyrimidin-4-yl)amino)phenyl)acrylamide] |
| < 100 nM | < 100 nM | < 100 nM | C=CC(=O)Nc1cc(C)ccc1Nc1nc(Nc2cc(OC)nc(N3CCN(C(C)=O)CC3)c2)ncc1Cl [Compound I-296, N-(2-((2-((2-(4-acetylpiperazin-1-yl)-6-methoxypyridin-4-yl)amino)-5-chloropyrimidin-4-yl)amino)-5-methylphenyl)acrylamide] |
| < 100 nM | < 100 nM | < 100 nM | C=CC(=O)Nc1ccccc1Nc1nc(Nc2cc(N[C@H]3CC[C@@H](O)CC3)nc(OC)c2)ncc1C(F)(F)F [Compound I-292] |
| < 100 nM | < 100 nM | < 100 nM | C=CC(=O)Nc1cc(C)ccc1Nc1nc(Nc2cc(OC)nc(N3CC(O)C3)c2)ncc1C(F)(F)F [Compound I-328, N-(2-((2-((2-(3-hydroxyazetidin-1-yl)-6-methoxypyridin-4-yl)amino)-5-(trifluoromethyl)pyrimidin-4-yl)amino)-5-methylphenyl)acrylamide] |
| < 100 nM | < 100 nM | < 100 nM | C=CC(=O)Nc1ccccc1Nc1nc(Nc2cc(OC)nc(N3CCCCC3)c2)ncc1C(F)(F)F [Compound I-282, N-(2-((2-((2-Methoxy-6-(piperidin-1-yl)pyridin-4-yl)amino)-5-(trifluoromethyl)pyrimidin-4-yl)amino)phenyl)acrylamide] |
| < 100 nM | < 100 nM | < 100 nM | C=CC(=O)Nc1ccccc1Nc1nc(Nc2cc(OC)cc(OC)c2)ncc1C(F)(F)F [Compound I-338, N-(2-((2-((3,5-dimethoxyphenyl)amino)-5-(trifluoromethyl)pyrimidin-4-yl)amino)phenyl)acrylamide] |
| < 100 nM | < 100 nM | < 100 nM | C=CC(=O)Nc1ccccc1Nc1nc(Nc2cc(OC)nc(N3CCS(=O)(=O)CC3)c2)ncc1C(F)(F)F [Compound I-291, N-(2-((2-((2-(1,1-Dioxidothiomorpholino)-6-methoxypyridin-4-yl)amino)-5-(trifluoromethyl)pyrimidin-4-yl)amino)phenyl)acrylamide] |
| < 100 nM | < 100 nM | 101 to 500 nM | C=CC(=O)Nc1cc(F)ccc1Nc1nc(Nc2cc(OC)ncc2C)ncc1C(F)(F)F [Compound I-322, N-(5-fluoro-2-((2-((2-methoxy-5-methylpyridin-4-yl)amino)-5-(trifluoromethyl)pyrimidin-4-yl)amino)phenyl)acrylamide] |
| 101 to 500 nM | < 100 nM | < 100 nM | C=CC(=O)Nc1cc(C)ccc1Nc1nc(Nc2cc(OC)nc(N3CCN(C)CC3)c2)ncc1C(F)(F)F [Compound I-325, N-(2-((2-((2-methoxy-6-(4-methylpiperazin-1-yl)pyridin-4-yl)amino)-5-(trifluoromethyl)pyrimidin-4-yl)amino)-5-methylphenyl)acrylamide] |
